Series [1] deals with BALB/c mice. Kind of series: Adjuvant activity with protein antigen gp120: anti-gp120 serum IgG by ELISA. The class given is in vivo. The method, then: Vaccine preparations containing an LPS antagonist and a protein antigen can be prepared in the following manner. Each vaccine preparation contained 5 μg of fully glycosylated endotoxia-free HIV-1MN gp120 (Virostat Cat. No. 8919, Lot AM735). Preparations comprised of gp120 and LPS antagonist were formulated essentially as outlined in Example 2 above except that each dose contained 5 μg of gp120 combined with a range of LPS antagonist doses (from 1 μg to 10 μg). The LPS antagonist was isolated from MLK986 cultured at 37° C. as described above.
Groups of 3 BALB/c mice were given a single dose of a given preparation of gp120 and LPS antagonist subcutaneously (primary vaccination). To determine the immunogenicity of the antigen in the absence of LPS antagonist, a group of BALB/c mice were vaccinated with 5 μg gp 120 formulated alone. For comparative purposes, an additional group of mice were vaccinated with 5 μg of gp120 formulated with Alum, as described (Coligan, et al., 1994, supra).
To measure the immunogenicity of each formulation, sera were collected from the mice in each group before and on day 14 after primary vaccination, as described in Example 2 above. On day 21 after the primary vaccination, mice were given a booster vaccination containing […] of gp120 formulated with matched doses of LPS antagonist, as was given in the primary vaccination. Ten and 17 days after the boost, venous blood was collected from the mice, and sera were obtained as outlined above. The level of anti-gp120 IgG in pooled serum samples was determined by ELISA as described in Example 2 above, except that gp120 was used in place of Hep-Tat in the first coating step. The results of the ELISA were obtained by reading the optical density of each well using a Molecular Dynamics ELISA plate reader and are shown in Table 3 below. The data are presented as dilution of the sera to achieve 50% saturation.

In series [2] the test system is human peripheral blood mononuclear cells (PBMCs). Kind of series: LPS antagonist activity: TNFα secretion by stimulated human PBMCs (capture ELISA). To be noted: 1 μg/ml + W3110 (10 ng/ml), 8 hr. The class given is cell-based. The method, then: W3110 LPS (also cultured at 37° C.) from 1 ng/ml to 100 ng/ml alone and W3110 LPS (10 ng/ml) mixed with synthetic lipid IVA (1 μg/ml) were used as controls. For this, PBMCs were obtained from 50 ml of whole blood and resuspended in complete medium (CM; RPMI containing pyruvate, glutamine, PenStrep, and 10% endotoxin-free human AB serum (Life Technologies) at a density of 6×10^6 PBMCs/ml. CM containing W3110 LPS, MLK986 LPS or synthetic lipid IVA was placed into duplicate wells of a 96-well flat bottom culture plate (Costar) at double the target final concentration. An equal volume of CM containing the PBMCs then was added to these wells and the culture plates were incubated at 37° C. in 5% CO2 for 8 hr. The supernatants were then removed and stored at […] Quantitation of TNFα, IL-1β, and IL-6 in these culture supernatants was achieved by capture ELISA (R&D Systems).
In general terms: An ELISA detects its analyte on a solid surface through an enzyme-linked reagent.

Series [3] has as its system BALB/c mice. The experiment in a line: Adjuvant activity with peptide antigen Hep-Tat: Hep-Tat-specific serum IgG by ELISA. The class given is in vivo. The protocol:
Vaccine preparations containing a peptide antigen and an LPS antagonist were prepared in the following manner. Each vaccine preparation contained […] of the vaccine peptide (herein designated “Hep-Tat”) that corresponds to the heparin-binding domain of the HIV-1 regulatory protein Tat and is comprised of the following sequence (GLGIS YGRKKRRQR; SEQ ID NO: 1). The peptide antigen was prepared synthetically as a Multiple Antigen Peptide (MAPS;Genosys). To formulate the preparations comprised of Hep-Tat and LPS antagonist (purified as outlined above), […] of Hep-Tat was combined with a range of LPS antagonist doses (from […]). The LPS antagonist was isolated from MLK986 cultured at 37° C. as described in. Example 1.
Groups of three BAL Blc mice were injected intraperitoneally with a single dose of a given preparation of Hep-Tat and LPS antagonist (i.e., primary vaccination). To determine the immunogenicity of the antigen in the absence of LPS antagonist, a group of BALB/c mice were vaccinated with 50 μg Hep-Tat formulated-alone. For comparative purposes, an additional group of mice was vaccinated with 50 μg Hep-Tat formulated with Alum, as described (Coligan, et al., 1994, supra).
To measure the immunogenicity of each formulation, venous blood was collected from the mice in each group before and on day 14 after primary vaccination, as described (Coligan, et al., 1994, supra). Serum was then obtained from each of these blood samples using standard techniques (Coligan, et al., 1994, supra). On day 21 after the primary vaccination, mice were given a booster vaccination containing the same dose of Hep-Tat and LPS antagonist or alum as was given in the primary vaccination. Seven days after the boost, venous blood was collected from the mice in each, and sera were obtained as outlined above. Each of the serum samples from individual groups were pooled and the level of Hep-Tat-specific IgG was ascertained by ELISA. In short, plastic 96 well ELISA plates (Immunol 2 Dynatech) were coated with Hep-Tat, by adding […] of Hep-Tat at 10 μg/ml suspended in PBS (Phosphate Buffer Saline) pH 7.4 in each well, and incubating overnight at 4° C. The plates were subsequently washed to remove unbound peptide and then 100 μl of blocking solution (comprised of 1% (w/v) Bovine Serum Albumin (BSA; Sigma) suspended in PBS) was added to each well. […] The result of the ELISA were obtained by reading the optical density of each well using a Molecular Dynamics ELISA plate reader. […]

[4] abbreviates: Pre (before primary vaccination), pooled sera.

The record followed here is patent US6759241B1, “Adjuvant comprising a lipopolysaccharide antagonist” (priority 1999, dated 2004).

Where no end group is shown, it is not given here.

Take “Gp120: fully glycosylated endotoxin-free HIV-1MN gp120 (Virostat Cat. No. 8919)”: the “Gp120-specific serum antibodies (anti-gp120 IgG), dilution of the sera to achieve 50% saturation” value in the series with BALB/c mice [1] (5 μg gp120 alone, subcutaneous, Day 14) is below 10; in the series on BALB/c mice [1] (setting [4]), −10; in the series on BALB/c mice [1] (gp120 alone, subcutaneous, boosted, Day 21) it was below 10. Further, the “immunogenicity of the antigen dose” value with BALB/c mice [1] (5 μg of gp120 formulated with Alum, preliminary experiments) is reported as “marginally immunogenic”.

`CCCCCCCCCCC[C@@H](O)CC(=O)N[C@H]1[C@H](OC[C@H]2O[C@H](OP(=O)(O)O)[C@H](NC(=O)C[C@H](O)CCCCCCCCCCC)[C@@H](OC(=O)C[C@H](O)CCCCCCCCCCC)[C@@H]2O)O[C@H](CO)[C@@H](OP(=O)(O)O)[C@@H]1OC(=O)C[C@H](O)CCCCCCCCCCC` [Lipid IVA]: in series [2], the TNFa is below 30 pg/mL.

Consider “Hep-Tat: vaccine peptide, heparin-binding domain of HIV-1 Tat (GLGIS YGRKKRRQR; SEQ ID NO: 1), Multiple Antigen Peptide (GLGISYGRKKRRQR; also: multiple antigen peptide format)”, for which the “Tat-specific antibodies (Hep-Tat-specific IgG), dilution of the sera to achieve the 50% saturation” value with BALB/c mice [3] (50 μg Hep-Tat alone, intraperitoneal, boosted, Day 21) is given as below 10; with BALB/c mice [3] (50 μg Hep-Tat alone, intraperitoneal, Day 14) it was below 10; in the series with BALB/c mice [3] (setting [4]), below 10. Also, in the series with BALB/c mice [3] (50 μg of Hep-Tat formulated with Alum (Pierce), preliminary experiments), the “immunogenicity of the antigen dose” value is “marginally immunogenic”.
